Target: T1, JAK3 (Homo sapiens, UniProt P52333)
T1 construct: endogenous in cells; host or cells: Molt4 (ATCC CRL-1582) and Ramos (ATCC CRL-1596), mixed lysate 1:2
T1 sequence (P52333 1-1124): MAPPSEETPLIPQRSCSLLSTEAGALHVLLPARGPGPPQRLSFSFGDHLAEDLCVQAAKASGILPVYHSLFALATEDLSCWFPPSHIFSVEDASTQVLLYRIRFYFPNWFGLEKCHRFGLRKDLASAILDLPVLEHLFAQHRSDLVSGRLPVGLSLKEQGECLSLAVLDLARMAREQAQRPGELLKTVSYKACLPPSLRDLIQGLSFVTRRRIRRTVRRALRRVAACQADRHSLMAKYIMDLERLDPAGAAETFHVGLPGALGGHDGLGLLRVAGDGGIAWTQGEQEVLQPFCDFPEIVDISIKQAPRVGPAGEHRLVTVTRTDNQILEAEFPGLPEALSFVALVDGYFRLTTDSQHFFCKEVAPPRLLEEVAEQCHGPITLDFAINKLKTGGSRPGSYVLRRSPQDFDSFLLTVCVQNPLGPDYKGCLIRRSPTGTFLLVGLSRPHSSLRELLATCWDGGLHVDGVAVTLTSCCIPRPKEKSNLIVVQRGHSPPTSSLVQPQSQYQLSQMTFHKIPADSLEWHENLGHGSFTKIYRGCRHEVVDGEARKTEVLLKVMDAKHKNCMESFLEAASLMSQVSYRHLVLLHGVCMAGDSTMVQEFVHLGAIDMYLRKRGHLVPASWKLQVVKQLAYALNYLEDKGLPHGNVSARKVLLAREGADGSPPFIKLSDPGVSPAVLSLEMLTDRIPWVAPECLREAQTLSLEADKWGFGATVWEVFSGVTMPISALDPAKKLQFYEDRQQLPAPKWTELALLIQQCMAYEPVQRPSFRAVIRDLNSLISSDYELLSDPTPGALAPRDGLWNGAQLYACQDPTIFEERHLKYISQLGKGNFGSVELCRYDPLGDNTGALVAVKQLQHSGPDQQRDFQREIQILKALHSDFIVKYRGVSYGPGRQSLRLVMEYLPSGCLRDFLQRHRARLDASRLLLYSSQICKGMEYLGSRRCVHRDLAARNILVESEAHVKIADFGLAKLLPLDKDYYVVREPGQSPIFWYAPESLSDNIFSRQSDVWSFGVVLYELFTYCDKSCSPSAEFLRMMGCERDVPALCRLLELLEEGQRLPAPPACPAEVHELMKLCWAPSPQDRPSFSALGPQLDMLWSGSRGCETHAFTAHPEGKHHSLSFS
Experiment: Kinobeads assay, JAK3
Type: binding
Conditions: mixed Molt4/Ramos lysate, read-out: Inhibition values (IC50) JAK3
Description: The compounds of the present invention as described in the previous examples were tested in a Kinobeads™ assay as described for ZAP-70 (WO-A 2007/137867). Briefly, test compounds (at various concentrations) and the affinity matrix with the immobilized aminopyrido-pyrimidine ligand 24 were added to cell lysate aliquots and allowed to bind to the proteins in the lysate sample. After the incubation time the beads with captured proteins were separated from the lysate. Bound proteins were then eluted and the presence of JAK1, JAK2, JAK3 and TYK2 was detected and quantified using specific antibodies in a dot blot procedure and the Odyssey infrared detection system. Dose response curves for individual kinases were generated and IC50 values calculated. Kinobeads™ assays for ZAP-70 (WO-A 2007/137867) and for kinase selectivity profiling (WO-A 2006/134056) have been previously described.
The affinity matrix was washed two times with 15 mL of lx DP buffer containing 0.2% NP40 (IGEPAL® CA-630, Sigma, #13021) and then resuspended in 1×DP buffer containing 0.2% NP40 (3% beads slurry).
5×DP buffer: 250 mM Tris-HCl pH 7.4, 25% Glycerol, 7.5 mM MgCl2, 750 mM NaCl, 5 mM Na3VO4; filter the 5×DP buffer through a 0.22 μm filter and store in aliquots at −80° C. The 5×DP buffer is diluted with H2O to 1×DP buffer containing 1 mM DTT and 25 mM NaF.
Stock solutions of test compounds were prepared in DMSO. In a 96 well plate […] solution of diluted test compounds at 5 mM in DMSO were prepared. Starting with this solution a 1:3 dilution series (9 steps) was prepared. For control experiments (no test compound) a buffer containing 2% DMSO was used.
Molt4 cells (ATCC catalogue number CRL-1582) and Ramos cells (ATCC catalogue number CRL-1596) were grown in 1 L Spinner flasks (Integra Biosciences, #182101) in suspension in RPMI 1640 medium (Invitrogen, #21875-034) supplemented with 10% Fetal Bovine Serum (Invitrogen) at a density between 0.15×10^6 and 1.2×10^6 cells/mL. Cells were harvested by centrifugation, washed once with 1×PBS buffer (Invitrogen, #14190-094) and cell pellets were frozen in liquid nitrogen and subsequently stored at −80° C. Cells were homogenized in a Potter S homogenizer in lysis buffer: 50 mM Tris-HCl, 0.8% NP40, 5% glycerol, 150 mM NaCl, 1.5 mM MgCl2, 25 mM NaF, 1 mM sodium vanadate, 1 mM DTT, pH 7.5. One complete EDTA-free tablet (protease inhibitor cocktail, Roche Diagnostics, 1873580) per 25 mL buffer was added. The material was dounced 10 times using a mechanized POTTER S, transferred to 50 mL falcon tubes, incubated for 30 minutes on ice and spun down for 10 minutes at 20,000 g at 4° C. (10,000 rpm in Sorvall SLA600, precooled). The supernatant was transferred to an ultracentrifuge (UZ)-polycarbonate tube (Beckmann, 355654) and spun for 1 hour at 100.000 g at 4° C. (33.500 rpm in Ti50.2, precooled). The supernatant was transferred again to a fresh 50 mL falcon tube, the protein concentration was determined by a Bradford assay (BioRad) and samples containing 50 mg of protein per aliquot were prepared. The samples were immediately used for experiments or frozen in liquid nitrogen and stored frozen at −80° C.
Cell lysate (approximately 50 mg protein per plate) was thawed in a water bath at room temperature and then stored on ice. To the thawed cell lysate 1×DP 0.8% NP40 buffer containing protease inhibitors (1 tablet for 25 mL buffer; EDTA-free protease inhibitor cocktail; Roche Diagnostics 1873580) was added in order to reach a final protein concentration of 10 mg/mL total protein. The diluted cell lysate was stored on ice. Mixed Molt4/Ramos lysate was prepared by combining one volume of Molt4 lysate and two volumes of Ramos lysate (ratio 1:2).
To a 96 well filter plate (Multiscreen HTS, BV Filter Plates, Millipore #MSBVN1250) were added per well: 100 μL affinity matrix (3% beads slurry), […], of compound solution, and 50 μL of diluted lysate. […]

Structure (SMILES) | IC50 [µM]
OCCn1cc(Nc2ncc(Cl)c(NC(CO)c3ccccc3Cl)n2)cn1 (stereo not shown) [Compound 120] | < 0.1
CNC(=O)Cn1cc(Nc2ncc(F)c(N[C@H](CO)c3cc(F)cc(-c4cnn(C)c4)c3)n2)cn1 [Compound 157] | 0.1 to 1
NC(=O)Cn1cc(Nc2ncc(Cl)c(NC(CO)c3cc(F)ccc3F)n2)cn1 (stereo not shown) [Compound 132] | < 0.1
OCCn1cc(Nc2ncc(Cl)c(NC(CO)c3cc(F)cc(F)c3)n2)cn1 (stereo not shown) [Compound 122] | < 0.1
Cn1cc(-c2cc(F)cc([C@@H](CO)Nc3nc(Nc4cnn(CCO)c4)ncc3F)c2)cn1 [Compound 153] | 0.1 to 1
O=C(NCC(F)(F)F)C(Nc1nc(Nc2cnn(CCO)c2)ncc1Cl)c1ccccc1F (stereo not shown) [Compound 128] | 0.1 to 1
NC(=O)Cn1cc(Nc2ncc(Cl)c(N[C@H](CO)c3cc(F)cc(F)c3)n2)cn1 [Compound 144] | < 0.1
NCCCn1cc(Nc2ncc(Cl)c(N[C@H](CO)c3ccccc3)n2)cn1 [Compound 113] | < 0.1
COc1cccc([C@@H](CO)Nc2nc(Nc3cnn(C(C)C)c3)ncc2Cl)c1 [Compound 106] | 0.1 to 1
Cc1cnc(Nc2cnn(CC(F)F)c2)nc1N[C@H](CO)c1cc(F)ccc1F [Compound 166] | 0.1 to 1
CCn1cc(Nc2ncc(Cl)c(N[C@H](CO)c3cccc(OC)c3)n2)cn1 [Compound 96] | < 0.1
CNC(=O)Cn1cc(Nc2ncc(Cl)c(N[C@H](CO)c3cccc(-c4cnn(C)c4)c3)n2)cn1 [Compound 154] | < 0.1
Cn1cc(Nc2ncc(Cl)c(N[C@H](CO)c3cc(F)cc(F)c3)n2)cn1 [Compound 142] | < 0.1
CNC(=O)Cn1cc(Nc2ncc(Cl)c(NC(CO)c3cc(F)ccc3F)n2)cn1 (stereo not shown) [Compound 130] | < 0.1
NC(=O)Cn1cc(Nc2ncc(Cl)c(NC(CO)c3ccccc3Cl)n2)cn1 (stereo not shown) [Compound 118] | < 0.1
CNC(=O)Cn1cc(Nc2ncc(Cl)c(N[C@H](CO)c3cccc(OC)c3)n2)cn1 [Compound 99] | < 0.1
OCCn1cc(Nc2ncc(Cl)c(N[C@H](CO)c3cc(F)cc(F)c3)n2)cn1 [Compound 143] | < 0.1
CNC(=O)Cn1cc(Nc2ncc(F)c(N[C@H](CO)c3ccccc3)n2)cn1 [Compound 111] | < 0.1
CC[C@@H](Nc1nc(Nc2cnn(C)c2)ncc1Cl)c1ccccc1 [Compound 5] | 0.1 to 1
Cn1cc(Nc2ncc(Cl)c(NC(CO)c3ccccc3Cl)n2)cn1 (stereo not shown) [Compound 117] | < 0.1
COc1ccccc1[C@@H](CO)Nc1nc(Nc2cnn(CC(=O)N3CCOCC3)c2)ncc1Cl [Compound 101] | < 0.1
CNC(=O)Cn1cc(Nc2ncc(F)c(N[C@H](CO)c3cc(F)ccc3F)n2)cn1 [Compound 148] | < 0.1
CC(C)OCCn1cc(Nc2ncc(Cl)c(N[C@H](CO)c3ccccc3)n2)cn1 [Compound 114] | < 0.1
CNC(=O)Cn1cc(Nc2ncc(Cl)c(N[C@H](CO)c3cc(F)cc(-c4cnn(C)c4)c3)n2)cn1 [Compound 156] | < 0.1

The remaining lines, values ahead:

IC50 [µM] | Structure (SMILES)
0.1 to 1 | Cc1cnc(Nc2cnn(C)c2)nc1N[C@H](CO)c1cccc(-c2cnn(C)c2)c1 [Compound 149]
< 0.1 | Cn1cc(Nc2ncc(Cl)c(N[C@H](CO)c3cccc(N4CCOCC4=O)c3)n2)cn1 [Compound 138]
< 0.1 | CC(C)n1cc(Nc2ncc(Cl)c(N[C@H](CO)c3cccnc3)n2)cn1 [Compound 107]
0.1 to 1 | CCC(Nc1nc(Nc2cnn(CC(N)=O)c2)ncc1Cl)c1ccccc1F (stereo not shown) [Compound 126]
< 0.1 | Cn1cc(Nc2ncc(F)c(N[C@H](CO)c3cc(F)ccc3F)n2)cn1 [Compound 146]
0.1 to 1 | Cn1cc(-c2cccc(C(CO)Nc3nc(Nc4cnn(CCO)c4)ncc3Cl)c2)cn1 (stereo not shown) [Compound 94]
< 0.1 | CCn1cc(Nc2ncc(Cl)c(N[C@H](CO)c3ccccc3F)n2)cn1 [Compound 109]
< 0.1 | NC(=O)Cn1cc(Nc2ncc(Cl)c(N[C@H](CO)c3cc(F)ccc3F)n2)cn1 [Compound 140]
0.1 to 1 | Cn1cc(Nc2ncc(Cl)c(NC(C)(CO)c3ccccc3)n2)cn1 (stereo not shown) [Compound 7]
< 0.1 | OCCn1cc(Nc2ncc(F)c(N[C@H](CO)c3cc(F)ccc3F)n2)cn1 [Compound 147]
< 0.1 | COc1ccccc1[C@@H](CO)Nc1nc(Nc2cnn(C(C)C)c2)ncc1Cl [Compound 105]
0.1 to 1 | CNC(=O)Cn1cc(Nc2ncc(Cl)c(NC(CO)c3ccccc3C(F)(F)F)n2)cn1 (stereo not shown) [Compound 131]
< 0.1 | Cn1cc(Nc2ncc(F)c(N[C@H](CO)c3cc(F)cc(F)c3)n2)cn1 [Compound 158]
< 0.1 | NC(=O)Cn1cc(Nc2ncc(F)c(N[C@H](CO)c3cc(F)cc(F)c3)n2)cn1 [Compound 160]
< 0.1 | CCn1cc(Nc2ncc(Cl)c(N[C@H](CO)c3cccnc3)n2)cn1 [Compound 97]
< 0.1 | Cn1cc(Nc2ncc(C(F)(F)F)c(N[C@H](CO)c3ccccc3)n2)cn1 [Compound 6]
0.1 to 1 | CNC(=O)Cn1cc(Nc2ncc(F)c(N[C@H](CO)c3cccc(-c4cnn(C)c4)c3)n2)cn1 [Compound 155]
< 0.1 | Cc1cnc(Nc2cnn(CC(=O)N(C)C)c2)nc1N[C@H](CO)c1ccccc1 [Compound 134]
< 0.1 | CNC(=O)Cn1cc(Nc2ncc(C)c(N[C@H](CO)c3ccccc3)n2)cn1 [Compound 133]
< 0.1 | CNC(=O)Cn1cc(Nc2ncc(F)c(N[C@H](CO)c3cc(F)cc(F)c3)n2)cn1 [Compound 161]
< 0.1 | Cn1cc(Nc2ncc(Cl)c(NC(CO)c3cccc(N4CCOCC4=O)c3)n2)cn1 (stereo not shown) [Compound 124]
0.1 to 1 | CCC(Nc1nc(Nc2cnn(C)c2)ncc1Cl)c1ccccc1F (stereo not shown) [Compound 125]
